According to US10696615B2, “Prenylated hydroxystilbenes” (The University of Sydney, priority 2011, dated 2020):

Assays:
Type in all cases: cell-based, human
[1] = system: COLO 205; experiment: NCI in vitro cancer screen, Colon Cancer; settings: COLO, unit not printed (M)
[2] = system: SK-OV-3; experiment: NCI in vitro cancer screen, Ovarian Cancer; settings: SK-OV-3, unit not printed (M)
[3] = system: SK-MEL-5; experiment: NCI in vitro cancer screen, Melanoma; settings: SK-MEL-5, unit not printed (M)
[4] = system: DU-145; experiment: NCI in vitro cancer screen, Prostate Cancer; settings: DU-145, unit not printed (M)
[5] = system: ACHN; experiment: NCI in vitro cancer screen, Renal Cancer; settings: unit not printed (M)
[6] = system: RPMI-8226; experiment: NCI in vitro cancer screen, Leukemia; settings: RPMI, unit not printed (M)
[7] = system: HL-60 (TB); experiment: NCI in vitro cancer screen, Leukemia; settings: HL-60(TB), unit not printed (M)
[8] = system: HT29; experiment: NCI in vitro cancer screen, Colon Cancer; settings: HT29, unit not printed (M)
[9] = system: HS 578T; experiment: NCI in vitro cancer screen, Breast Cancer; settings: unit not printed (M)
[10] = system: SNB-75; experiment: NCI in vitro cancer screen, CNS Cancer; settings: SNB-75, unit not printed (M)
[11] = system: EKVX; experiment: NCI in vitro cancer screen, Non-Small Cell Lung Cancer; settings: unit not printed (M)
[12] = system: HOP-62; experiment: as above; settings: HOP (first HOP line), unit not printed (M)
[13] = system: HCT-116; experiment: NCI in vitro cancer screen, Colon Cancer; settings: HCT-116, unit not printed (M)
[14] = system: NCI-H322M; experiment: NCI in vitro cancer screen, Non-Small Cell Lung Cancer; settings: unit not printed (M)
[15] = system: OVCAR-5; experiment: NCI in vitro cancer screen, Ovarian Cancer; settings: OVCAR-5, unit not printed (M)
[16] = system: SK-MEL-2; experiment: NCI in vitro cancer screen, Melanoma; settings: SK-MEL-2, unit not printed (M)
[17] = system: M14; experiment: NCI in vitro cancer screen, Melanoma; settings: M14, unit not printed (M)
[18] = system: K-562; experiment: NCI in vitro cancer screen, Leukemia; settings: K-562, unit not printed (M)
[19] = system: SF-268; experiment: NCI in vitro cancer screen, CNS Cancer; settings: SF-268, unit not printed (M)
[20] = system: HCT-15; experiment: NCI in vitro cancer screen, Colon Cancer; settings: HCT-15, unit not printed (M)
[21] = system: HCC-2998; experiment: NCI in vitro cancer screen, Colon Cancer; settings: HCC-2998, unit not printed (M)
[22] = system: UACC-62; experiment: NCI in vitro cancer screen, Melanoma; settings: UACC-62, unit not printed (M)
[23] = system: 786-0; experiment: NCI in vitro cancer screen, Renal Cancer; settings: 786-0, unit not printed (M)
[24] = system: OVCAR-4; experiment: NCI in vitro cancer screen, Ovarian Cancer; settings: OVCAR-4, unit not printed (M)
[25] = system: ADR-RES (NCI/ADR-RES); experiment: NCI in vitro cancer screen, Ovarian Cancer; settings: NCI/ADR-RES, unit not printed (M)
[26] = system: T-47D; experiment: NCI in vitro cancer screen, Breast Cancer; settings: unit not printed (M)
[27] = system: A549/ATCC; experiment: NCI in vitro cancer screen, Non-Small Cell Lung Cancer; settings: unit not printed (M)
[28] = system: OVCAR-8; experiment: NCI in vitro cancer screen, Ovarian Cancer; settings: OVCAR-8, unit not printed (M)
[29] = system: OVCAR-3; experiment: NCI in vitro cancer screen, Ovarian Cancer; settings: OVCAR-3, unit not printed (M)
[30] = system: RXF-393; experiment: NCI in vitro cancer screen, Renal Cancer; settings: Homo sapiens, RXF 393, unit not printed (M)
[31] = Homo sapiens, read-out: LC50 (the source's name)

COc1cc(/C=C/c2cc(O)cc(O)c2CC=C(C)C)ccc1O [USYDS10, (E)-2-(3-methyl-2-buten-1-yl)-3,4′,5-trihydroxy-3′-methoxystilbene] showed a TGI [1] of 2.97E−5, a GI50 ([1]; Homo sapiens, COLO 205) of 15.3 µM and a CC50 ([1]; Homo sapiens, COLO 205, read-out: LC50 (the source's name)) of 57.7 µM. For the same compound, the GI50 ([2]; Homo sapiens) was 0.422 µM, the CC50 [2, 31] was 34.2 µM and the TGI [2] was 1.14E−5. For the same compound, the GI50 ([3]; Homo sapiens) was 0.291 µM, the CC50 [3, 31] was 36 µM and the TGI [3] was 1.27E−5. It also gave a TGI [4] of 2.05E−5, a GI50 ([4]; Homo sapiens) of 0.442 µM and a CC50 [4, 31] of over 100 µM. The GI50 ([5]; Homo sapiens) was 0.903 µM, the CC50 [5, 31] was over 100 µM and the TGI [5] was 3.79E−5. The GI50 ([6]; Homo sapiens, RPMI-8226) was 0.324 µM, the CC50 ([6]; Homo sapiens, RPMI-8226, read-out: LC50 (the source's name)) was over 100 µM and the TGI [6] was 1.63E−5. It also gave a TGI [7] of 1.88E−6, a GI50 ([7]; Homo sapiens) of 0.327 µM and a CC50 [7, 31] of over 100 µM. For the same compound, the TGI [8] was 2.13E−5, the GI50 ([8]; Homo sapiens, HT-29) was 5.72 µM and the CC50 ([8]; Homo sapiens, HT-29, read-out: LC50 (the source's name)) was 69 µM. The GI50 ([9]; Homo sapiens) was 0.292 µM, the CC50 [9, 31] was over 100 µM and the TGI [9] was 2.60E−5. It also gave a GI50 ([10]; Homo sapiens) of 0.236 µM, a CC50 [10, 31] of 36.1 µM and a TGI [10] of 1.22E−5. For the same compound, the GI50 ([11]; Homo sapiens) was 12.2 µM, the CC50 [11, 31] was over 100 µM and the TGI [11] was 7.34E−5. It also gave a TGI [12] of 1.77E−5, a GI50 ([12]; Homo sapiens, HOP-62) of 0.581 µM and a CC50 ([12]; Homo sapiens, HOP-62, read-out: LC50 (the source's name)) of 42.3 µM. The TGI [13] was 1.30E−5, the GI50 ([13]; Homo sapiens) was 0.48 µM and the LC50 (concentration killing 50% of cells) ([13]; Homo sapiens) was 42.7 µM. For the same compound, the GI50 ([14]; Homo sapiens) was 11.8 µM, the LC50 (50% lethal concentration) ([14]; Homo sapiens) was 83.7 µM and the TGI [14] was 3.14E−5. It also gave a GI50 ([15]; Homo sapiens) of 8.92 µM, a CC50 [15, 31] of 83.1 µM and a TGI [15] of 2.80E−5. The GI50 ([16]; Homo sapiens) was 0.576 µM, the LC50 ([16]; Homo sapiens) was over 100 µM and the TGI [16] was 3.26E−5. It also gave a GI50 ([17]; Homo sapiens) of 0.284 µM, a CC50 [17, 31] of 41.6 µM and a TGI [17] of 1.42E−5. For the same compound, the GI50 ([18]; Homo sapiens, K562) was 0.386 µM, the CC50 ([18]; Homo sapiens, K562, read-out: LC50 (the source's name)) was over 100 µM and the TGI [18] was 3.17E−5. The GI50 ([19]; Homo sapiens) was 1.4 µM, the CC50 [19, 31] was over 100 µM and the TGI [19] was 4.96E−5. For the same compound, the TGI [20] was 2.09E−5, the GI50 ([20]; Homo sapiens) was 0.498 µM and the CC50 [20, 31] was over 100 µM. The TGI [21] was 1.19E−5, the GI50 ([21]; Homo sapiens) was 1.81 µM and the CC50 [21, 31] was 39.8 µM. For the same compound, the GI50 ([22]; Homo sapiens) was 0.521 µM, the CC50 [22, 31] was 42.8 µM and the TGI [22] was 1.55E−5. For the same compound, the TGI [23] was 2.01E−5, the GI50 ([23]; Homo sapiens) was 0.681 µM and the LC50 (50% net cell kill) ([23]; Homo sapiens) was 74.5 µM. The GI50 ([24]; Homo sapiens) was 1.03 µM, the CC50 [24, 31] was 57.7 µM and the TGI [24] was 1.82E−5. It also gave a GI50 ([25]; Homo sapiens) of 0.183 µM, a CC50 [25, 31] of over 100 µM and a TGI [25] of 8.04E−7. It also gave a GI50 ([26]; Homo sapiens, T47D) of 1.47 µM, a CC50 ([26]; Homo sapiens, T47D, read-out: LC50 (the source's name)) of over 100 µM and a TGI [26] of 2.47E−5. For the same compound, the GI50 ([27]; Homo sapiens) was 0.66 µM, the CC50 [27, 31] was over 100 µM and the TGI [27] was 2.25E−5. It also gave a GI50 ([28]; Homo sapiens) of 0.467 µM, a CC50 [28, 31] of over 100 µM and a TGI [28] of 6.50E−5. The GI50 ([29]; Homo sapiens) was 0.372 µM, the CC50 [29, 31] was over 100 µM and the TGI [29] was 2.03E−5. The GI50 [30] was 0.221 µM and the CC50 ([30]; read-out: LC50 (the source's name)) was 37.6 µM.
